According to PMC6648477 (ACS Omega, 2019):
Like-named read-outs stand apart in the source and are kept apart here.

B1: Puma peptide (peptide)
peptide: RGEEEQWAREIGAQLRRMADDLN

Tests used:
hMcl-1 = hMcl-1 (Homo sapiens, UniProt Q07820); experiment: FP assay, displacement of F-Puma from hMcl-1; type: binding
hBcl-2 = hBcl-2 (Homo sapiens, UniProt P10415); experiment: FP assay, displacement of F-Puma from hBcl-2; type: binding
mMcl-1 = mMcl-1 (Mus musculus, UniProt P97287); experiment: 1H,15N HSQC NMR titration, Mcl-1; type: binding; conditions: Mcl-1 Kd by 1H,15N HSQC NMR (N)
double His-TEV-hMcl-1 = double His-TEV-hMcl-1 (Homo sapiens, UniProt Q07820); experiment: SPR direct binding, Mcl-1
[1] = target: Unmodified human Bcl-2 residues 1-207 (hBcl-2) (human, UniProt P10415 1-207); experiment: fluorescence polarisation
[2] = read-out: Bcl-2 eKi, FP assay, NM = not measurable at top concentration (2.5 mM or solubility limit)

Sequence of hBcl-2 (P10415 1-207): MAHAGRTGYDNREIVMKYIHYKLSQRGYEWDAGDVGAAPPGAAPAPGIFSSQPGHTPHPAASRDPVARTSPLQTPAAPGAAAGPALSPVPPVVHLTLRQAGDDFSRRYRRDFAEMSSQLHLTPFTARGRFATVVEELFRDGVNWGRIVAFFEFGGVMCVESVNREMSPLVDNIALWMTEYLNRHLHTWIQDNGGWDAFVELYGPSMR
Sequence of hMcl-1 (Q07820 171-327 limits assumed): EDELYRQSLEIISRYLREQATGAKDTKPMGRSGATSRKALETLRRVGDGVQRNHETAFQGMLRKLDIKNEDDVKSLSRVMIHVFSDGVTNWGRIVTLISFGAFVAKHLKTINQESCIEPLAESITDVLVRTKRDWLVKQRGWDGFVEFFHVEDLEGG
Sequence of mMcl-1 (P97287 152-308 limits assumed): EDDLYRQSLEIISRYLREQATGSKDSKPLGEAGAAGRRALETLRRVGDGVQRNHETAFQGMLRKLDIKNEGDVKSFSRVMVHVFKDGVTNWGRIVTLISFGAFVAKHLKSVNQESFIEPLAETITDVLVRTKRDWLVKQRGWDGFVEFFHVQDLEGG
Sequence of double His-TEV-hMcl-1 (Q07820 171-327 limits assumed): as the sequence (Q07820 171-327 limits assumed) above
Sequence of Unmodified human Bcl-2 residues 1-207 (hBcl-2) (P10415 1-207): as the sequence (P10415 1-207) above

Molecule	Ki (hMcl-1) [µM]	Ki (hBcl-2) [µM]	Kd (mMcl-1) [µM]	Ki (hBcl-2; [2]) [µM]	Kd (double His-TEV-hMcl-1) [µM]	binding result [1]
CCN1CC(c2nc(C(=O)O)cs2)Oc2ccccc21 (stereo not drawn) [Compound 24]	20	500	220	–	–	–
O=C(O)c1csc(C2CNc3ccccc3O2)n1 (stereo not drawn) [Compound 23]	500	–	360	> 2500	–	–
O=C(O)c1csc(C2CN(Cc3ccccc3)c3ccccc3O2)n1 (stereo not drawn) [Compound 25]	40	800	40	–	450	–
O=C(O)c1csc([C@H]2CN(Cc3ccccc3)c3ccccc3O2)n1 [Compound 26]	30	–	110	> 2500	–	–
O=C(O)c1csc([C@@H]2CN(Cc3ccccc3)c3ccccc3O2)n1 [Compound 27]	40	–	140	> 2500	–	–
O=C(O)c1nc(C2COc3ccccc3O2)sc1Cc1ccccc1 (stereo not drawn) [Compound 22]	40	80	85	–	140	–
B1	–	–	–	–	–	binds
